Experimental findings from patent US5364864A, “1,4-disubstituted piperidines, their preparation and their application in therapy” (priority 1991, dated 1994) are described below.

The experiment addresses acetylcholinesterase (Homo sapiens, UniProt P22303). In words: Inhibition of acetylcholinesterase activity (method of Ellman et al.). The experiment is classed as biochemical. A general note: Ellman's reagent forms a yellow product with free thiols.

acetylcholinesterase, sequence (P22303 32-614): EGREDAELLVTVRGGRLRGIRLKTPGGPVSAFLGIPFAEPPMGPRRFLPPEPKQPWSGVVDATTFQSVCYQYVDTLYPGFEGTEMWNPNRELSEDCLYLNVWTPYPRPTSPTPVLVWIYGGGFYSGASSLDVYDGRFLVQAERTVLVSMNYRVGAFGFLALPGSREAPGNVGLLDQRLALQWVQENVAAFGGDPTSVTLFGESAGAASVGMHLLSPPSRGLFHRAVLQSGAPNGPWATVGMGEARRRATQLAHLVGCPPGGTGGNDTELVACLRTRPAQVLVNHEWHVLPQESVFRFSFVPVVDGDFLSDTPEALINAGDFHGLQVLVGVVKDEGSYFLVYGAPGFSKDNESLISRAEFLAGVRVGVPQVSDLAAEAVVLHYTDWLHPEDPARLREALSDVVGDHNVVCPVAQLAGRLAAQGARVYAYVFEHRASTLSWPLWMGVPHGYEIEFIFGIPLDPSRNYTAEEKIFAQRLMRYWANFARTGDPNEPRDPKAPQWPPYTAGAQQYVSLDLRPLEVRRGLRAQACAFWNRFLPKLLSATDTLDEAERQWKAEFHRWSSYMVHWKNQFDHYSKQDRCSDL

By IC50 is commonly meant the concentration at which inhibition is half-maximal. `S=C(NCCC1CCN(Cc2ccccc2)CC1)Nc1ccccc1` [Compound 1, 1-Phenyl-3-[2-(1-benzyl-4-piperidyl)ethyl]thiourea] showed an IC50 of 320 nM.
